Test results as given in patent US20250186431A1, “PHARMACEUTICAL COMPOSITION FOR RADIOTHERAPY, AND METHOD FOR TREATING SOLID CANCER USING SAME” (Kyoto University, priority 2022, published 2025).
Where a name gives a salt, the structure may show the parent alone.

Key:
OVCAR8 tumor spheroid [1] = assay: Destruction of spheroid by monochromatic X-ray irradiation; assay type: cell-based, Human; settings: 30 minutes, then 3 days incubation
Procedure: Irradiation of monochromatic X-rays was performed in beamline BL14B1 of large-scale synchrotron radiation facility SPring-8 located in Sayo-cho, Sayo-gun, Hyogo Prefecture, Japan. […] First, white X-ray generated from the bending magnet of SPring-8 was guided to an exit-position fixed two-crystal monochromator having silicon 311 crystal to generate a monoenergetic X-ray beam (monochromatic X-ray). SPring-8 storage ring was operated in the top-up mode under which fluctuation of X-ray intensity over time can be ignored due to a constant storage current of 100 mA to perform an irradiation experiment. The shape of the X-ray beam was controlled by using horizontal and vertical transport channel (TC) slits. The size of the X-ray beam at the position of a sample was 0.7 mm in height×1.4 mm in width. This is large enough to cover a spheroid having a size of 0.5 mm×0.5 mm. During experiments, the intensity of the X-ray beam was monitored in two ion chambers arranged on the optical axis. The X-ray transmitted was monitored by a CCD camera to control the position of the sample. […] Spheroids are placed at the bottom of tubes put in a sample rack.
The iodine atom-containing Hoechst compound (I-Hoechst) and spheroids were incubated (24 hours) in the same manner as in Test Example 3 to obtain spheroids having the Hoechst compound taken up. The spheroids were put in tubes and the tubes were plated at the sample rack of the X-ray irradiation device. Since the sample rack is designed such that samples can be moved on the XYZ stage, the experimenter can perform X-ray irradiation by moving samples on the optical axis without entering the experimental hutch. After completion of X-ray irradiation to a sample, the sample rack is designed to automatically move such that the irradiation position faces the next sample. Thus, a series of X-ray irradiation can be automatically performed (see, FIG. 6). Before irradiation, the position of a sample was confirmed by an optical microscope and a laser, and monitored by a CCD camera during X-ray irradiation. Note that, since the energy of X-ray is extremely high, observation of spheroids and an absorption control of a tube by the CCD camera was not made. A refractive X-ray image of a tube was obtained to monitor of a sample position. The photon flux at a position of a sample was calculated as 3.9×10^8 (photons/second) by use of the SPECTRA code.
The spheroids prepared as mentioned above were irradiated with a monochromatic X-ray (energy: 33.0 key, 33.2 keV or 33.4 keV) for 30 minutes. After X-ray radiation, spheroids were incubated in a CO2 incubator at 37° C. for 3 days and thereafter, observed by a confocal microscope (visible light and fluorescent light). […]

[2] = tested on: OVCAR8 tumor spheroid (hypoxic or normoxic); assay: Destruction of hypoxic spheroid by monochromatic X-ray irradiation; assay type: cell-based, Human; settings: then monochromatic X-ray
Procedure: The iodine atom-containing Hoechst compound (I-Hoechst) and spheroids were incubated (24 hours) in the same manner as in Test Example 3 to obtain spheroids having the Hoechst compound taken up therein. The spheroids were put in tubes and further incubated in a hypoxic (0% oxygen concentration) condition for further 18 hours. As a control, spheroids were incubated in a normal (not hypoxic) oxygen condition (20% oxygen concentration) in the same manner for 18 hours. After incubation in a hypoxic (or normoxic) condition, the spheroids were irradiated with monochromatic X-rays in the same manner as in Test Example 5. In the Test, whether spheroids are placed in a hypoxic condition was checked by inducing expression of a hypoxic marker, HIF-1α. Note that, HIF-1α is a kind of a hypoxia inducible factor and measurable by a commercially available kit.
Furthermore, spheroids (nanoparticles carrying an iodine atom-containing Hoechst compound-spheroid) prepared in Test Example 8 are irradiated with monochromatic X-rays under a hypoxic condition in the same manner as in Test Example 7. It is confirmed that hypoxic spheroids irradiated with the X-rays are destroyed.

[3] = tested on: DNA double strand in OVCAR8 tumor spheroid; assay: γH2AX assay of spheroids immediately after monochromatic X-ray irradiation; assay type: cell-based, Human
Procedure: For investigating the mechanism of how to destroy spheroids, spheroids were irradiated with a monochromatic X-ray for 30 minutes. Immediately after irradiation and before incubation, spheroids were subjected to γH2AX assay to confirm the state of a DNA double strand. In the γH2AX assay, if a double strand is cleaved, red fluorescence is emitted. The γH2AX assay was performed by use of a commercially available kit in accordance with the instructions attached thereto.

OVCAR8 tumor spheroid [4] = assay: Uptake into tumor spheroid, confocal microscopy; assay type: cell-based, Human; settings: 5 nmol/mL
Procedure: Human ovarian cancer cell OVCAR8 expressing green fluorescent protein (GFP) was used as a cancer cell. A tumor spheroid (hereinafter also referred to as “spheroid”) was formed from the cancer cell. Cancer cell OVCAR8 was cultured on RPMI1640 medium containing 10% inactivated FBS and 1% penicillin/streptomycin in a culture dish of 100 mm in diameter. For forming spheroids, […] of OVCAR8 cells were seeded in PrimeSurface96U culture plate (MS-9096U, Sumitomo Bakelite Co., Ltd). The OVCAR8 cells were cultured in a CO2 incubator at 37° C. for 7 days. Since the cells were not able to attach to a hydrophilic plate surface, the cells came together at the bottom of a well and formed three-dimensional spheroids at the bottom. In this manner, spheroids (estimated number of cells: approximately 100,000) of 500 μm in diameter were obtained.
Subsequently, an iodine atom-containing Hoechst compound (I-Hoechst-3HCl) (0.1 mg, 151.57 nmol) was dissolved in water (1.5 mL) to prepare a solution containing the iodine atom-containing Hoechst compound (amount of the Hoechst compound: 100 nmol/mL). […]
For the horizontal row, images in the column indicated by “GFP” are the observation results based on a fluorescence (green), whereas images in the column indicated by “I-Hoechst” are observation results based on staining (blue) with the Hoechst compound. […]

[5] = tested on: ovarian cancer OVCAR8 cells; assay: Cytotoxicity test by LDH (lactate dehydrogenase) method; assay type: cell-based, Human
Procedure: A Hoechst compound (normal compound containing no iodine atom) is generally considered to have low toxicity. The following experiment was carried out to confirm that iodine atom-containing Hoechst compounds have low toxicity. Iodine atom-containing Hoechst compounds (I-Hoechst, 3HCl) different in addition amount were each incubated with ovarian cancer OVCAR8 cells. Cytotoxicity was investigated by a commercially available kit in accordance with LDH (lactate dehydrogenase) method.
Furthermore, the safety of the nanoparticles carrying an iodine atom-containing Hoechst compound is confirmed in the same manner as in Test Example 6.

[6] = tested on: Human ovarian cancer cell OVCAR8 expressing GFP; assay: Uptake by cancer cell, confocal microscopy; assay type: cell-based; settings: 50 nmol/mL, 24 hours, 37° C.
Procedure: Human ovarian cancer cell OVCAR8 expressing green fluorescent protein (GFP) was used as a cancer cell. Cancer cell OVCAR8 was cultured on RPMI1640 medium containing 10% inactivated FBS and 1% penicillin/streptomycin in a culture dish having a diameter of 100 mm. Furthermore, the iodine atom-containing Hoechst compound (I-Hoechst-3HCl) (0.1 mg, 151.57 nmol) was dissolved in water (0.15 mL) to prepare a solution (the amount of Hoechst compound: 1 μmol/mL) containing the iodine atom-containing Hoechst compound. The solution was added to the culture solution such that the amount of the Hoechst compound in the culture solution became 50 nmol/mL and incubated in a CO2 incubator at 37° C. for 24 hours. Thereafter, the culture medium was removed and the cells were washed. The cells were observed by a confocal microscope. Cell nuclei can be detected based on staining with a Hoechst compound (blue color emission) and expression of GFP (green fluorescence). […]
Nanoparticles (IH-BPMO) carrying an iodine atom-containing Hoechst (I-Hoechst) were added to a medium containing cancer cells and culture was performed for 24 hours in accordance with Test Example 8. Fluorescence was observed by a microscope.

SMILES: CN1CCN(c2ccc3nc(-c4ccc5nc(-c6ccc(O)cc6)[nH]c5c4)[nH]c3c2)CC1 [Hoechst 33258, reference compound]
- Spheroid destruction (OVCAR8 tumor spheroid [1]; any of the monochromatic X-rays (33.0, 33.2 or 33.4 keV)): spheroids were not destroyed

SMILES: CN1CCN(c2ccc3nc(-c4ccc5nc(-c6ccc(O)c(I)c6)[nH]c5c4)[nH]c3c2)CC1 [Hoechst 33342 analog 2]
- Spheroid destruction (OVCAR8 tumor spheroid [1]; monochromatic X-ray 33.0 keV): spheroids were not destroyed
- Spheroid destruction (OVCAR8 tumor spheroid [1]; monochromatic X-ray 33.2 keV): destroyed into pieces
- Spheroid destruction (OVCAR8 tumor spheroid [1]; monochromatic X-ray 33.4 keV): spheroids were destroyed even though the degree of destruction was lower than the 33.2-keV monochromatic X-ray
- Spheroid destruction in hypoxic condition ([2]; 0% oxygen 18 hours): effectively destroyed
- Spheroid destruction in normoxia condition ([2]; 20% oxygen 18 hours): effectively destroyed
- DNA double strand break (γH2AX red fluorescence) ([3]; 33.0 keV, 30 minutes, immediately after irradiation): no DNA double strands were broken
- DNA double strand break (γH2AX red fluorescence) ([3]; 33.2 keV, 30 minutes, immediately after irradiation): a DNA double strand was broken
- DNA double strand break (γH2AX red fluorescence) ([3]; 33.4 keV, 30 minutes, immediately after irradiation): a DNA double strand was broken although the degree of double strand break is lower than the 33.2-keV monochromatic X-ray
- DNA double strand break (γH2AX red fluorescence) ([3]; no irradiation with monochromatic X-ray): no DNA double strands were broken

SMILES: CN1CCN(c2ccc3nc(-c4ccc5nc(-c6ccc(O)c(I)c6)[nH]c5c4)[nH]c3c2)CC1 [I-Hoechst-3HCl, Hoechst 33342 analog 2 trihydrochloride]
- Permeation into interior of spheroid (OVCAR8 tumor spheroid [4]; confocal microscope): reaches not only cells close to the surface of a spheroid but also cells located at the center of the spheroid
- Uptake and distribution in spheroids (OVCAR8 tumor spheroid [4]; incubation 1, 24, 96 hours): efficiently taken up by spheroids and uniformly distributed over the entire spheroids 24 hours later
- Concentration at which no toxicity was shown (LDH method) [5]: ≤ 20 µM
- Uptake and localization in cancer cell [6]: taken up within the cell, transported to the nucleus of the cell and localized in DNA
